Laboratory results as given in ChEMBL document CHEMBL3132776, “Synthesis of amphiphilic, chalcogen-based redox modulators with in vitro cytotoxic activity against cancer cells, macrophages and microbes” (Medchemcomm, 2014).
The source made the active and inactive calls. No cut-off for these calls is given here.

Assays:
RAW264.7 = assay: Cytotoxicity against mouse RAW264.7 cells assessed as reduction in cell viability after 24 hrs by MTT assay; type: functional, cell-based; conditions: RAW264.7, 24 h
[1] = Cytotoxicity against human ARPE19 cells assessed as reduction in cell viability after 24 hrs by MTT assay; type: cell-based; conditions: ARPE-19, 24 h
Erythrocyte [2] = assay: Induction of membrane permeabilization assessed as hemolysis in RBC (unknown origin) at 100 microM by spectrophotometry based hemoglobin release assay; type: functional
HCT-116 [3] = assay: Cytotoxicity against human p53-positive HCT116 cells assessed as reduction in cell viability after 24 hrs by MTT assay; type: functional, cell-based; conditions: HCT-116, 24 h
[4] = Critical micelle concentration of the compound by KRUSS tensiometry; type: physicochemical
Erythrocyte [5] = assay: Induction of membrane permeabilization assessed as hemolysis in RBC (unknown origin) by spectrophotometry based hemoglobin release assay; type: functional, cell-based
Escherichia coli = assay: Antibacterial activity against Escherichia coli M17 VKPM-B8208 by agar plate assay; type: functional, organism-based
Steinernema feltiae = assay: Nematicidal activity against Steinernema feltiae assessed as reduction in viability after 24 hrs; type: functional; conditions: read-out: LD50 (the source's name)
HCT-116 [6] = assay: Drug uptake in human p53-positive HCT116 cells after 48 hrs by energy-dispersive X-ray spectroscopy; type: ADME, cell-based; conditions: hct-116, 48 h
HCT-116 [7] = assay: Induction of superoxide anion radicals generation in human p53-positive HCT116 cells at 50 microM within 40 mins by DHE staining based fluorescence assay; type: functional, cell-based
[8] = biological target: Hemoglobin HbA (Homo sapiens) (UniProt P69905+P68871); assay: Binding affinity to Hemoglobin (unknown origin) at 10 mM by circular dichroism spectroscopy
HCT-116 [9] = assay: Reduction in mitochondrial membrane potential in human p53-positive HCT116 cells by JC-1 dye based fluorescence assay; type: functional, cell-based
HCT-116 [10] = assay: Induction of superoxide anion radicals generation in human p53-positive HCT116 cells by DHE staining based fluorescence assay; type: functional, cell-based

Sequence of Hemoglobin HbA (Homo sapiens) (P68871 2-147 partner limits assumed): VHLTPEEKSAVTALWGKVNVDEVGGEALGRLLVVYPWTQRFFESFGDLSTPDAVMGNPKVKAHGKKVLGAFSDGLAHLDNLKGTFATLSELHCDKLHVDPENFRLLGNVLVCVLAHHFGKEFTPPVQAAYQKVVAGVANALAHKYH
Sequence of Hemoglobin HbA (Homo sapiens) (P69905 2-142 limits assumed): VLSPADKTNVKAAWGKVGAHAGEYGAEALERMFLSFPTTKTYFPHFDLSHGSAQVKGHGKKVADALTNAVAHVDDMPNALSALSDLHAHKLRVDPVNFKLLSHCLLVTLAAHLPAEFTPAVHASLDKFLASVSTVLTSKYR

| SMILES | IC50 (RAW264.7) | IC50 [1] | Activity (Erythrocyte [2]) | IC50 (HCT-116 [3]) | CMC [4] | Activity (Erythrocyte [5]) | IC50 (Escherichia coli) | LC50 (Steinernema feltiae) | Drug uptake (HCT-116 [6]) | Activity (HCT-116 [7]) | Activity [8] | Activity (HCT-116 [9]) | Activity (HCT-116 [10]) |
| --- | --- | --- | --- | --- | --- | --- | --- | --- | --- | --- | --- | --- | --- |
| O=S(=O)([O-])OCCCCCCCCCCCC[Te]c1ccccc1.[Na+] | 4.96 µM | 50 µM | 67.61% | 19.8 µM | 0.3 mM | Dose-dependent effect |  |  |  |  |  |  |  |
| O=S(=O)([O-])OCCCCCCCCCCC[Se]c1ccccc1.[Na+] | > 100 µM |  | 63.41% | > 100 µM | 1.1 mM | Dose-dependent effect |  |  |  |  |  |  |  |
| O=S(=O)([O-])OCCCCCCCC[Te]c1ccccc1.[Na+] | 3.95 µM | 50 µM | 3.09% | 5.99 µM | 5 mM | Dose-dependent effect | 550 µM | 78 µM | Active | Active | Active |  |  |
| O=S(=O)([O-])OCCCCCCCCC[Se]c1ccccc1.[Na+] | > 100 µM |  | 2.73% | > 100 µM | 2.5 mM | Dose-dependent effect |  |  |  |  |  |  |  |
| O=S(=O)([O-])OCCCCCCCCCC[Te]c1ccccc1.[Na+] | 5.32 µM | 50 µM | 45.35% | 7.47 µM | 0.9 mM | Dose-dependent effect |  |  |  |  |  |  |  |
| O=S(=O)([O-])OCCCCCCCCCCCC[Se]c1ccccc1.[Na+] | > 100 µM |  | 66.8% | > 100 µM | 0.7 mM | Dose-dependent effect |  |  |  |  |  |  |  |
| O=S(=O)([O-])OCCCCCCCCC[Te]c1ccccc1.[Na+] | 4.67 µM | 50 µM | 20.44% | 4.99 µM | 4.8 mM | Dose-dependent effect |  |  |  |  |  |  |  |
| O=S(=O)([O-])OCCCCCCCC[Se]c1ccccc1.[Na+] | > 100 µM |  | 1.24% | > 100 µM | 2.6 mM | Dose-dependent effect |  | 30 µM |  |  | Active | inactive | inactive |
| O=S(=O)([O-])OCCCCCCCCCC[Se]c1ccccc1.[Na+] | > 100 µM |  | 7.94% | > 100 µM | 1.2 mM | Dose-dependent effect |  |  |  |  |  |  |  |
| CCCCCCCCCCCCOS(=O)(=O)[O-].[Na+] [SODIUM LAURYL SULFATE] | > 100 µM |  | 9.51% | > 100 µM | 0.9 mM | Dose-dependent effect |  | > 400 µM |  |  |  |  |  |
| O=S(=O)([O-])OCCCCCCCCCCC[Te]c1ccccc1.[Na+] | 7.84 µM | 50 µM | 53.35% | 9.73 µM | 0.5 mM | Dose-dependent effect |  |  |  |  |  |  |  |
